Experimental findings from PubChem BioAssay (NCI) are described below.

SMILES strings stand for the structures.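 Dose response: 5 concentrations. Exposure: 48 h. Format: 96-well plates. Endpoint: linear interpolation; highest concentration if not reached. At the TGI there is no net growth.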

Holding throughout (assay): growth of human tumour cells (NCI), 48 h
The test system of test [1] is BT-549 breast.
For test [2], the system named is SF-539 CNS.
For test [3], the system named is OVCAR-4 ovarian.
Test [4] deals with SW-620 colon.
Test [5] has as its system DU-145 prostate.
Test [6] deals with HOP-92 NSCLC.
Test [7] deals with SK-MEL-28 melanoma.
For test [8], the system named is A549 NSCLC.
Test [9] concerns NCI-H522 lung.
Test [10] relates to LOX IMVI melanoma.

Consider `CC1(C)Cc2ccccc2C(C)(Cl)C(=O)N1` (stereo unspecified), for which the TGI in [1], in [2], in [3], in test [4], in test [5] and in [6] was greater than 10 µM each time. The TGI in test [7] and in test [8] was greater than 10 µM throughout.
With `CC1=NN(c2ccccc2)C(=O)/C1=C\c1c(C)[nH]n(-c2ccccc2)c1=O`, the TGI in test [1], in test [9], in test [2], in test [3], in test [4] and in [5] was greater than 100 µM in each case. Also, the TGI was 90.5 µM in test [6], greater than 100 µM in test [7] and greater than 100 µM in [8].
For the compound `COc1ccc(NCn2nc(CCCCCCCCc3nn(CNc4ccc(OC)cc4)c(=S)o3)oc2=S)cc1`, the TGI in [1], in test [9], in [3], in [4], in test [5] and in test [6] was greater than 100 µM each time. For the same compound, the TGI in test [7] and in test [8] was greater than 100 µM in each case.
Regarding `COc1ccc(-c2csc3c2[N+]2(C)C=CC=C2C3N2CCCC2)cc1` (stereo unspecified), the TGI in test [1] is 58.3 µM; in [9] it was 19.1 µM; in test [2], 57.7 µM; in [10], greater than 100 µM; in test [3], greater than 100 µM; in test [4], greater than 100 µM. The TGI in [6] was 75.9 µM; in test [8], greater than 100 µM.
With `CCOC(=O)/C=C(/C(=O)OCC)n1cc(C)c(=O)n(Cc2cn(CCCCOC(C)=O)nn2)c1=O`, the TGI in test [9] was 4.53 µM; in test [2] it was 19.1 µM; in test [10], 49.5 µM; in test [3], 39.5 µM; in [4] it was greater than 100 µM; in test [5], greater than 100 µM. The results for the TGI in test [6], in test [7] and in test [8] were 3.11 µM, 35.2 µM and 56.1 µM, respectively.
As for `CCOC(=O)c1c(SC(=O)c2ccc(Cl)cc2)n(-c2ccccc2)c(=S)n(-c2ccccc2)c1=O`, the TGI in [9], in [2], in test [10], in test [3], in test [4] and in test [5] was greater than 100 µM each time. The TGI in test [6], in test [7] and in [8] was greater than 100 µM throughout.
With `O=Cn1c2ccccc2c2ccccc21`, the TGI in [9], in test [2], in [10], in test [4], in test [6] and in test [7] was greater than 100 µM in each case. For the same compound, the TGI in test [8] was greater than 100 µM.
With `Oc1c(NCn2nc(CCCCCCCCc3nn(CNc4ccc5ccccc5c4O)c(=S)o3)oc2=S)ccc2ccccc12`, the TGI in test [1], in test [9], in test [3], in test [4], in test [5] and in test [6] was greater than 100 µM in each case. For the same compound, the TGI in test [7] and in test [8] was greater than 100 µM throughout.
In the case of `CN1CCC(O)(OC(=O)C(c2ccccc2)C2(O)CCCC2)CC1` (stereo unspecified), the TGI in test [9], in test [2], in [10], in test [3], in test [4] and in test [5] was greater than 100 µM in each case. The TGI in test [6], in test [7] and in [8] was greater than 100 µM each time.
For the compound `CCCCn1c(-c2ccccc2)cs/c1=N\NC(=O)Cn1c(C)nc2ccccc21`, the TGI in [9], in [2], in [10], in test [3], in test [4] and in test [8] was greater than 100 µM in each case.
As for `O=C(CCC(NC(=O)OCc1ccccc1)C(=O)OCc1ccccc1)Nc1cccc(OCc2ccccc2)c1` (stereo unspecified), the TGI was 70.1 µM in test [9]; 35 µM in [2]; 38.3 µM in [10]; greater than 100 µM in test [3]; greater than 100 µM in [4]; 79.6 µM in [5]. Besides, the TGI in [6] is 75 µM; in [7], greater than 100 µM; in [8], greater than 100 µM.
Take `O=C(NNC(=O)c1ccncc1)C(=O)Nc1cc(Cl)c(Cl)cc1Cl`: the TGI in [1], in test [9], in test [2], in test [10], in test [3] and in test [4] was greater than 100 µM in each case. Also, the TGI in test [6], in test [7] and in [8] was greater than 100 µM in each case.
`O=c1cc(-c2ccccc2)oc2cc(OCCCCCCCCCCOc3ccc4c(=O)cc(-c5ccccc5)oc4c3)ccc12`: the TGI in test [9], in test [2], in [3], in test [4], in test [6] and in test [7] was greater than 100 µM in each case. Moreover, the TGI in test [8] was greater than 100 µM.
In the case of `CCOC(=O)C1=C(N2CCCC2)C(=O)C(C(=O)OCC)C1` (stereo unspecified), the TGI in test [1], in test [9], in test [2], in [10], in test [3] and in test [4] was greater than 100 µM throughout. The TGI in test [6], in test [7] and in test [8] was greater than 100 µM each time.
Consider `C/C(=N/NC(N)=S)C(CN1CCOCC1)C(C1=C(O)c2ccccc2OC1)c1ccccc1` (stereo unspecified), for which the TGI in [9], in [2], in [10], in [3], in test [4] and in test [5] was greater than 100 µM each time. Further, the TGI in [6] and in test [8] was greater than 100 µM throughout.
Turning to `C/C(=N\Nc1nc2cc(F)ccc2s1)c1ccccn1`, the TGI in test [1] was 5.84 µM; in test [9], 2.62 µM; in [2], greater than 23.4 µM; in test [3] it was 3.32 µM; in [4] it was 5.37 µM; in test [5], greater than 100 µM. Also, the TGI is 11.5 µM in [6] and greater than 100 µM in test [7].
